Reference: patent US7074789B2, “Kinase inhibitors” (Amgen Inc., priority 1999, dated 2006)
Where two headings read alike, the source gives them in different places.

Assays:
Type in all cases: biochemical
PDGFRB = target: T1, PDGFRB (Homo sapiens, UniProt P09619); assay: Kinase inhibition assay (33P transfer), PDGFRB; conditions: read-out: PDGFRB-1
T1 construct: Kinases are expressed as either kinase domains or full length constructs; made in house

IGFR-1 [1] = target: T2, IGFR-1 (Homo sapiens, UniProt P08069); assay: Kinase inhibition assay (33P transfer), IGFR-1; conditions: Table 2, kinase inhibition class
T2 construct: Kinases are expressed as either kinase domains or full length constructs; made in house

Itk = target: T3, Itk (Homo sapiens, UniProt Q08881); assay: Kinase inhibition assay (33P transfer), Itk; conditions: read-out: Itk-1
T3 construct: Kinases are expressed as either kinase domains or full length constructs; made in house
T3 sequence (Q08881 1-620): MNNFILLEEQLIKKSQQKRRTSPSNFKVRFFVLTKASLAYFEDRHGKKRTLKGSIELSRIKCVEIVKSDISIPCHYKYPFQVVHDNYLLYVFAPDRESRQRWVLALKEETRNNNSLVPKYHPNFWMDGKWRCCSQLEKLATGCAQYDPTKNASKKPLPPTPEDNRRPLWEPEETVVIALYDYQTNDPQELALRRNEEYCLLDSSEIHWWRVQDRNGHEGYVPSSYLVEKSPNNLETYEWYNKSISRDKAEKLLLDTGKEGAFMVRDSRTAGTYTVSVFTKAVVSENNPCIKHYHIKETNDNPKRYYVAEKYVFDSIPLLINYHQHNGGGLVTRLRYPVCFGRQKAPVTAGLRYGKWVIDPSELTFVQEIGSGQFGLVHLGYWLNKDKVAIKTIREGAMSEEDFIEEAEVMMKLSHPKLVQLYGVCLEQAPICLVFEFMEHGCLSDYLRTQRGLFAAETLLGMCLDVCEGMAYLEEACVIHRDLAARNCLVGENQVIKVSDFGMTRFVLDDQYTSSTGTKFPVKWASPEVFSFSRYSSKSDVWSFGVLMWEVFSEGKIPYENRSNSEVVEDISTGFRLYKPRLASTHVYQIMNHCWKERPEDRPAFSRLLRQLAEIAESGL
In short: (§1)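 GST/His-fusion kinases, E. coli or High Five expressed, affinity purified; 33P-ATP, plate-coated poly(Glu,Tyr) 4:1 or poly(Arg,Ser) 3:1; 0.5% H3PO4 wash, scintillant, LSC.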

Lck = target: T4, Lck (Homo sapiens, UniProt P06239); assay: Kinase inhibition assay (33P transfer), Lck; conditions: read-out: Lck-1
T4 construct: Kinases are expressed as either kinase domains or full length constructs; made in house
In short: (§2)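 Filterless plate radiometric format: immobilized poly(Glu,Tyr) 4:1 or poly(Arg,Ser) 3:1, 33P-labelled ATP, tagged recombinant kinase (some with regulatory partners). Incorporated label counted after phosphoric acid wash.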

c-Met = target: T5, c-Met (Homo sapiens, UniProt P08581); assay: Kinase inhibition assay (33P transfer), c-Met; conditions: Table 2, kinase inhibition class; read-out: Met-1
T5 construct: Kinases are expressed as either kinase domains or full length constructs; made in house
In short: as §1

Tek = target: T6, Tek (Homo sapiens, UniProt Q02763); assay: Kinase inhibition assay (33P transfer), Tek; conditions: read-out: Tek-1
T6 construct: Kinases are expressed as either kinase domains or full length constructs; made in house
In short: as §1

Zap-70 = target: T7, Zap-70 (Homo sapiens, UniProt P43403); assay: Kinase inhibition assay (33P transfer), Zap-70; conditions: read-out: Zap-1
T7 construct: Kinases are expressed as either kinase domains or full length constructs; made in house
T7 sequence (P43403 1-619): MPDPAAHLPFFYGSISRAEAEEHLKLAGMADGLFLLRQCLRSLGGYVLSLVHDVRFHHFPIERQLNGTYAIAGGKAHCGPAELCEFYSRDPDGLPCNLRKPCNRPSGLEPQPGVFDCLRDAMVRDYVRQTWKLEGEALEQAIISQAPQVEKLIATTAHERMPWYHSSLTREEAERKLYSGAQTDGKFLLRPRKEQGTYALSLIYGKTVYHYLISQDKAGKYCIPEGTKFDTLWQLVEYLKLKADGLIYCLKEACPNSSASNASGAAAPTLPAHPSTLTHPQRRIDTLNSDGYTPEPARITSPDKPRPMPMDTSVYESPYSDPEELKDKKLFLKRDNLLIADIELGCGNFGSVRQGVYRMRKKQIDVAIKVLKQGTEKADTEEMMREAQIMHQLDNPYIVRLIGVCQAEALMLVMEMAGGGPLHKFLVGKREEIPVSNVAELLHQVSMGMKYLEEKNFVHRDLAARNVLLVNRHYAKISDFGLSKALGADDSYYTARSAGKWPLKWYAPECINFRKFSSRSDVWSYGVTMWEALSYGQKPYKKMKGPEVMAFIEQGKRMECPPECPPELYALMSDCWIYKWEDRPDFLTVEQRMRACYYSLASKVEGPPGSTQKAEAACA
In short: as §2

EGFR = target: T8, EGFR (Homo sapiens, UniProt P00533); assay: Kinase inhibition assay (33P transfer), EGFR; conditions: Table 2, kinase inhibition class; read-out: EGFR-1
T8 construct: Kinases are expressed as either kinase domains or full length constructs; made in house
In short: as §1

AKT = target: T9, AKT (Homo sapiens, UniProt Q9Y243); assay: Kinase inhibition assay (33P transfer), AKT; conditions: Table 2, kinase inhibition class; read-out: AKT3-1
T9 construct: Kinases are expressed as either kinase domains or full length constructs; made in house
In short: as §2

Kdr = target: T10, Kdr (Homo sapiens, UniProt P35968); assay: Kinase inhibition assay (33P transfer), Kdr; conditions: read-out: KDR-1
T10 construct: Kinases are expressed as either kinase domains or full length constructs; made in house
In short: as §2

FGFR1 = target: T11, FGFR1 (Homo sapiens, UniProt P11362); assay: Kinase inhibition assay (33P transfer), FGFR1; conditions: read-out: FGFR1-1
T11 construct: Kinases are expressed as either kinase domains or full length constructs; made in house

Flt-1 = target: T12, Flt-1 (Homo sapiens, UniProt P17948); assay: Kinase inhibition assay (33P transfer), Flt-1
T12 construct: Kinases are expressed as either kinase domains or full length constructs; made in house
From the text: The inhibitor compounds described herein are screened in the following manner. Kinases suitable for use in the following protocol to determine kinase activity of the compounds described herein include, -but are not limited to: Lck, Lyn, Src, Fyn, Syk, Zap-70, Itk, Tec, Btk, EGFR, ErbB2, Kdr, Flt-1, Flt-3, Tek, c-Met, InsR, and AKT.
Kinases are expressed as either kinase domains or full length constructs fused to glutathione S-transferase (GST) or polyHistidine tagged fusion proteins in either E. colior Baculovirus-High Five expression systems. They are purified to near homogeneity by affinity chromatography essentially as previously described (Lehr et al., 1996; Gish et al., 1995). In some instances, kinases are co-expressed or mixed with purified or partially purified regulatory polypeptides prior to measurement of activity.
Kinase activity and inhibition are measured essentially by established protocols (Braunwalder et al., 1996). Briefly, The transfer of ^33PO4 from ATP to the synthetic substrates poly(Glu, Tyr) 4:1 or poly(Arg, Ser) 3:1 attached to the bioactive surface of microtiter plates serves as the basis to evaluate enzyme activity. After an incubation period, the amount of phosphate transferred is measured by first washing the plate with 0.5% phosphoric acid, adding liquid scintillant, and then counting in a liquid scintillation detector. The IC50 is determined by the concentration of compound that causes a 50% reduction in the amount of […] incorporated onto the substrate bound to the plate.

ErbB2 = target: T13, ErbB2 (Homo sapiens, UniProt P04626); assay: Kinase inhibition assay (33P transfer), ErbB2; conditions: read-out: ErbB2-2
T13 construct: Kinases are expressed as either kinase domains or full length constructs; made in house
In short: as §1

IGFR-1 [2] = target: T2, IGFR-1; assay: Kinase inhibition assay, IGFR-1 (Table 2); conditions: Table 2, kinase inhibition class

T6 sequence (Q02763 23-1124, species assumed): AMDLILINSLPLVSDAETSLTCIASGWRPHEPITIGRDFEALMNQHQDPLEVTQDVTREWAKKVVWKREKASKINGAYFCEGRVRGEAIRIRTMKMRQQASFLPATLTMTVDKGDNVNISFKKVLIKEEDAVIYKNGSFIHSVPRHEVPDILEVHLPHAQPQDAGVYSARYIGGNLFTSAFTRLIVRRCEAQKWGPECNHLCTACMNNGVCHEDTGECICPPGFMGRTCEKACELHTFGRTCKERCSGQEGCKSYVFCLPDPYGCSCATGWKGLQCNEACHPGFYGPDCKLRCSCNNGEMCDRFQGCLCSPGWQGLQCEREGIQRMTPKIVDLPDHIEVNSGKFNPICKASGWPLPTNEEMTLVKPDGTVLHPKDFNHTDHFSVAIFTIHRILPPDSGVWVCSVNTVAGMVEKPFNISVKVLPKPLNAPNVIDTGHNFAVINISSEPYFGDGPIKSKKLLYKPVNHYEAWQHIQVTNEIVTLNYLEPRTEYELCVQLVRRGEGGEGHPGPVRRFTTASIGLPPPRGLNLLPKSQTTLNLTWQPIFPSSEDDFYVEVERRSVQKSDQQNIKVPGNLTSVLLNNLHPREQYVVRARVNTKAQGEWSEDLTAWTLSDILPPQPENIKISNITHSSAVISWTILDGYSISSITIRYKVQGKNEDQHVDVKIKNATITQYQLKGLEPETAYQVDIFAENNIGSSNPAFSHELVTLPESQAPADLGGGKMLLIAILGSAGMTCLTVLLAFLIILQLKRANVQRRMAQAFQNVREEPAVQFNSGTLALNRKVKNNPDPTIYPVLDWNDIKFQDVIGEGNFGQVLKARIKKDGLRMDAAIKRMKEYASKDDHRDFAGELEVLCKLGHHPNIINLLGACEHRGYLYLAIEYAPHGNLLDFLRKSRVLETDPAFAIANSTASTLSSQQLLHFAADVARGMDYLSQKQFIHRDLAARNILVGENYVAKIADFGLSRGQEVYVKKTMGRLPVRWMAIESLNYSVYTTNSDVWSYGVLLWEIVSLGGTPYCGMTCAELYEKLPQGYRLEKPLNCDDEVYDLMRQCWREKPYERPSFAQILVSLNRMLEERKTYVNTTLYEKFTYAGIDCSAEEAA
T1 sequence (P09619 33-1106, species assumed): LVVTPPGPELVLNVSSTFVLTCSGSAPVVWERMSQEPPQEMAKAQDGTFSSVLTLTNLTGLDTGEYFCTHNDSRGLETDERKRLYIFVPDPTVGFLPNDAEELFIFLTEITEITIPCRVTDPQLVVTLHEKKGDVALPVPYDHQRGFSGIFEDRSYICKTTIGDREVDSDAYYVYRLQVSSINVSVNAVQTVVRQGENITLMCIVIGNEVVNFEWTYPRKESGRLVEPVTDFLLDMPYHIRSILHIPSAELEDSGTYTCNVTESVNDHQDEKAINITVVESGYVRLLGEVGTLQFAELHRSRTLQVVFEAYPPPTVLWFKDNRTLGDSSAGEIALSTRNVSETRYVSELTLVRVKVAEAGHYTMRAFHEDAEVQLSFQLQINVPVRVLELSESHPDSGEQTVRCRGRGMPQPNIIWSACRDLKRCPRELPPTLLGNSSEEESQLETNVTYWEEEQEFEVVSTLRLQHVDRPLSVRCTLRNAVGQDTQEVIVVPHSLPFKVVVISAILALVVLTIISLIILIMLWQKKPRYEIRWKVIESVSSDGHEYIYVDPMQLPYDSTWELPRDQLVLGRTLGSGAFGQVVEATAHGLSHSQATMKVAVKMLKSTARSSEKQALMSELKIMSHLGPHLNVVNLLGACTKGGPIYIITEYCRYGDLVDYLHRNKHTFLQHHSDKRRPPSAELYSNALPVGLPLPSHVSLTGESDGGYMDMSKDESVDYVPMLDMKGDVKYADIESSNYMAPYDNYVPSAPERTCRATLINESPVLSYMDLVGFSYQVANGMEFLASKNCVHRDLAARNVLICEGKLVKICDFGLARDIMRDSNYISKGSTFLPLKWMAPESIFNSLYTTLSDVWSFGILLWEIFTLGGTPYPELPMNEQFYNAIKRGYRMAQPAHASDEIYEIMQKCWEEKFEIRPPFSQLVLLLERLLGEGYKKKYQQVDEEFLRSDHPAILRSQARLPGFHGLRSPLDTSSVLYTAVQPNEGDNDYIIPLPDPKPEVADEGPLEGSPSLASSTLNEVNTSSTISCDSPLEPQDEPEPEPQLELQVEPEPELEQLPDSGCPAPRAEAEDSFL
T8 sequence (P00533 25-1210, species assumed): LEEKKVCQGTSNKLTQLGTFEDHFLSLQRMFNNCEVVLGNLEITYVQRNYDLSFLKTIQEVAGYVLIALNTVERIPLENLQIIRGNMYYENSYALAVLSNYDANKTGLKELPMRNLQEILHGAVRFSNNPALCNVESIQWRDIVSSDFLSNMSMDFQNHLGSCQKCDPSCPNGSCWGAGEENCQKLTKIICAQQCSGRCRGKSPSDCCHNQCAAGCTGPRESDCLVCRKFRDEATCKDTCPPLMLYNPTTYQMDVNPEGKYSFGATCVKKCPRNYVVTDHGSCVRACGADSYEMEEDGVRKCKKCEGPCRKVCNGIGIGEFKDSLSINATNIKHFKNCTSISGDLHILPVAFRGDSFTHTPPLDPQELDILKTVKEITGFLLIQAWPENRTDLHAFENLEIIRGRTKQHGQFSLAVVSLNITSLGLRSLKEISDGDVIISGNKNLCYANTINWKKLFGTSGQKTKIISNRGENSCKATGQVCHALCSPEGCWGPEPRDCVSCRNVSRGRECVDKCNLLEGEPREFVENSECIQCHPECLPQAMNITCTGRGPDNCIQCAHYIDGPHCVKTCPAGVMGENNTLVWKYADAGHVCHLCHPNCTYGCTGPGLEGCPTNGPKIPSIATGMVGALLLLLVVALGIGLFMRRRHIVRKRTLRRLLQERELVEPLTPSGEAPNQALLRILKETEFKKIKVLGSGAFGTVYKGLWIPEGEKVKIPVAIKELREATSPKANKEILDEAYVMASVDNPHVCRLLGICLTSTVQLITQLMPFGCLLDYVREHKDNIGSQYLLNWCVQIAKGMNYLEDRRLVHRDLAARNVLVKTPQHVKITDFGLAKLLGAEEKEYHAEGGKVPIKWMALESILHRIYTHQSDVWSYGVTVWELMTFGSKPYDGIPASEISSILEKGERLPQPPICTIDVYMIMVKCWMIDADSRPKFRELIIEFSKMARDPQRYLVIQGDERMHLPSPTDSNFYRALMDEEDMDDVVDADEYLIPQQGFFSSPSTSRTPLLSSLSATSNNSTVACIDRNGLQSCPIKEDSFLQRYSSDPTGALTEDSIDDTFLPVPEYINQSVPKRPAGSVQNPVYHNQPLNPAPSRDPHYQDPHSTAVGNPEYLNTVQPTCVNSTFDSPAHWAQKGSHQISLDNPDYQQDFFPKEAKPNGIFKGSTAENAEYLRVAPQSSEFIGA
T4 sequence (P06239 whole entry, species assumed, the tested form may be a part): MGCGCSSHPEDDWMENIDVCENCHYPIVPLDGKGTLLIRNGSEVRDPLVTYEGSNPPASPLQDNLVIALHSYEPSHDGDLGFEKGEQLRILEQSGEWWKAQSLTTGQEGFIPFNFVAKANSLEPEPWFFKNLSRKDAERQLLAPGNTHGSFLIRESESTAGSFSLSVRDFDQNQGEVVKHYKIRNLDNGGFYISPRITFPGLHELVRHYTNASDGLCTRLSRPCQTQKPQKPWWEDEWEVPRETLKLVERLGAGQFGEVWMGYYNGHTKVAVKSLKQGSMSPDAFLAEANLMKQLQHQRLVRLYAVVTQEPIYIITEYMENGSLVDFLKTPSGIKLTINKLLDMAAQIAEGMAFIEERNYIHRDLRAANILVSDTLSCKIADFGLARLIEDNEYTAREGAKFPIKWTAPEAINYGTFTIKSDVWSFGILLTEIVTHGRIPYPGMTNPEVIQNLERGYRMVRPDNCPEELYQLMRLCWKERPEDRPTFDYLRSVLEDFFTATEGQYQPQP
T13 sequence (P04626 23-1255, species assumed): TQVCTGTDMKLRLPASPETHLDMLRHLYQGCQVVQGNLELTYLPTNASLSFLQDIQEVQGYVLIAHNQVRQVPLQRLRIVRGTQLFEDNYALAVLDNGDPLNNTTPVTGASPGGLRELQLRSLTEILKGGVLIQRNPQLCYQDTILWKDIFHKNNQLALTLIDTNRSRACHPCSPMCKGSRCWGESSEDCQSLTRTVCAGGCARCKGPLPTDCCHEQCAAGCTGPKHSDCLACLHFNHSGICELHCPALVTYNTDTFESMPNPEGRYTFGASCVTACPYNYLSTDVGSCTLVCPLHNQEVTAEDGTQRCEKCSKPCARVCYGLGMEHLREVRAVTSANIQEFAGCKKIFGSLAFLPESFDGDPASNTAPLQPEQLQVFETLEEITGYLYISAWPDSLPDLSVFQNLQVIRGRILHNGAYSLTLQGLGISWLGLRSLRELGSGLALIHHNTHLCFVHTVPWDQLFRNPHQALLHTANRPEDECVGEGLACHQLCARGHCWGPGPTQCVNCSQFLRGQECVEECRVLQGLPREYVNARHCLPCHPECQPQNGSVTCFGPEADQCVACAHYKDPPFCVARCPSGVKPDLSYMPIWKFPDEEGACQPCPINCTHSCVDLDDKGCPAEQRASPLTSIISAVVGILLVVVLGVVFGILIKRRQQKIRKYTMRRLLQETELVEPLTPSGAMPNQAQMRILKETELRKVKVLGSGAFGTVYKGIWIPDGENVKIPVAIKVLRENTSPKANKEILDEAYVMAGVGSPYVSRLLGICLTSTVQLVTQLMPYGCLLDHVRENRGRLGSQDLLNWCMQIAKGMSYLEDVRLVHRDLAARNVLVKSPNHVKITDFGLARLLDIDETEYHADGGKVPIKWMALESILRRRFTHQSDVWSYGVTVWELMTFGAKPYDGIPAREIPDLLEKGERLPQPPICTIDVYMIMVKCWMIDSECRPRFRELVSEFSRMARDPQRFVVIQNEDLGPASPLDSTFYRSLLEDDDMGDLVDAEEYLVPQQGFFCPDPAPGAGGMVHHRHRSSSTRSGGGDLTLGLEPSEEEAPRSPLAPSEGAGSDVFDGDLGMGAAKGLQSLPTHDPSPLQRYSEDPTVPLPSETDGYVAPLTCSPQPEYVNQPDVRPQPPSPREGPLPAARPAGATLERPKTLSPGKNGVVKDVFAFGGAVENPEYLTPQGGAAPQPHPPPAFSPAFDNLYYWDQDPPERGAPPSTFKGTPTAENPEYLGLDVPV

Row | Structure (SMILES) | IC50 (PDGFRB) | IC50 (IGFR-1 [1]) | IC50 (Itk; Table 3) | IC50 (Lck; Table 3) | IC50 (c-Met) | IC50 (Tek) | IC50 (Zap-70; Table 3) | IC50 (EGFR) | IC50 (AKT) | IC50 (Kdr; Table 3) | IC50 (FGFR1) | IC50 (Flt-1) | IC50 (Itk) | IC50 (Lck) | IC50 (ErbB2) | IC50 (IGFR-1 [2]) | IC50 (Zap-70) | IC50 (Kdr)
1 | COc1ccc(Nc2ncnc(Nc3ccc(OC)c(OC)c3)n2)cc1OC [Compound 63] | 1.04 to 6.26 µM | > 11.7 µM | > 11.7 µM | > 11.7 µM | > 11.7 µM | > 11.7 µM | > 11.7 µM | > 11.7 µM | > 11.7 µM | 1.04 to 6.26 µM |  |  |  |  |  |  |  | 
2 | COc1cc(Nc2ncnc(-n3cccc3)n2)cc(OC)c1OC [Compound 182] | > 13.7 µM |  | > 13.7 µM | 7.33 to 10.7 µM | 10.7 to 13.7 µM |  | > 13.7 µM | > 13.7 µM |  | < 1.22 µM | > 13.7 µM | > 13.7 µM |  |  |  |  |  | 
3 | COc1cc(Nc2ncnc(-n3c(NCc4nc5ccccc5[nH]4)nc4ccccc43)n2)cc(OC)c1OC [Compound 954] | > 8.6 µM |  |  |  | 6.69 to 8.6 µM | > 8.6 µM |  | > 8.6 µM | > 8.6 µM |  |  |  | 4.58 to 6.69 µM | 6.69 to 8.6 µM | 4.58 to 6.69 µM | 6.69 to 8.6 µM | > 8.6 µM | 6.69 to 8.6 µM
4 | COc1ccc(Nc2ncnc(Nc3cc(-c4ccccc4)n[nH]3)n2)cc1OC [Compound 977] | > 11.6 µM |  |  |  | < 1.03 µM | > 11.6 µM |  | 1.03 to 6.16 µM | > 11.6 µM |  |  |  | > 11.6 µM | < 1.03 µM | 1.03 to 6.16 µM | < 1.03 µM | > 11.6 µM | < 1.03 µM
5 | COc1cc(C)c(Nc2ncnc(Nc3cc(-c4ccccc4)n[nH]3)n2)cc1OC [Compound 978] | > 11.2 µM |  |  |  | < 0.991 µM | > 11.2 µM |  | 0.991 to 5.95 µM | > 11.2 µM |  |  |  | 5.95 to 8.68 µM | 0.991 to 5.95 µM | 0.991 to 5.95 µM | < 0.991 µM | > 11.2 µM | 0.991 to 5.95 µM
6 | O=C(O)Cc1cccc(Nc2ncnc(Nc3cc(-c4ccccc4)n[nH]3)n2)c1 [Compound 981] | 1.03 to 6.2 µM |  |  |  | < 1.03 µM | 1.03 to 6.2 µM |  | < 1.03 µM | > 11.6 µM |  |  |  | 1.03 to 6.2 µM | 1.03 to 6.2 µM | 1.03 to 6.2 µM | < 1.03 µM | > 11.6 µM | < 1.03 µM
7 | O=C(O)Cc1cccc(Nc2ncnc(Nc3cc(-c4ccco4)n[nH]3)n2)c1 [Compound 983] | 1.06 to 6.36 µM |  |  |  | < 1.06 µM | 6.36 to 9.27 µM |  | < 1.06 µM | 9.27 to 11.9 µM |  |  |  | 1.06 to 6.36 µM | 6.36 to 9.27 µM | > 11.9 µM | 1.06 to 6.36 µM | 6.36 to 9.27 µM | < 1.06 µM
8 | COc1cc(Nc2ncnc(Nc3cc(-c4ccc(C(=O)O)cc4)n[nH]3)n2)cc(OC)c1OC [Compound 1004] | 0.863 to 5.18 µM |  |  |  | < 0.863 µM | 0.863 to 5.18 µM |  | 0.863 to 5.18 µM | > 9.71 µM |  |  |  | 7.55 to 9.71 µM | < 0.863 µM | 0.863 to 5.18 µM | < 0.863 µM | > 9.71 µM | 0.863 to 5.18 µM
9 | NC(=O)c1ccc(Nc2ncnc(-c3cccnc3NCc3cccs3)n2)cc1 [Compound 1083] | 0.991 to 5.95 µM |  |  |  | > 11.2 µM | 0.991 to 5.95 µM |  | 0.991 to 5.95 µM | > 11.2 µM |  |  |  | 8.67 to 11.2 µM | 0.991 to 5.95 µM | > 11.2 µM | > 11.2 µM | > 11.2 µM | < 0.991 µM
10 | COc1ccc(CNc2ncccc2-c2ncnc(Nc3cc(OC)c(OC)c(OC)c3)n2)nc1 [Compound 1085] | 0.841 to 5.05 µM |  |  |  | > 9.46 µM | > 9.46 µM |  | > 9.46 µM | > 9.46 µM |  |  |  | > 9.46 µM | 0.841 to 5.05 µM | > 9.46 µM | > 9.46 µM | > 9.46 µM | < 0.841 µM
